Where two headings read alike, the source gives them in different places.

Broadly, the IC50 is the point on the concentration scale where inhibition reaches its midpoint.

The test system of data set [1] is hyperacetylation of tubulin, H3K9 and H3K27. Briefly: Western blot of tubulin and histone H3 hyperacetylation in 4TO7 cells. In kind it is cell-based, mouse. The following applies: hybrids 10 μM, SAHA 100 nM, 6 h. The protocol:
The potential for compounds as HDACi’s can be rapidly tested in cells in culture by monitoring the hyperacetylation of histone H3 and tubulin. H3 acetylation is controlled by multiple class I enzymes, and the class IIb enzyme HDAC6 regulates tubulin acetylation.[36]−[39] […] (Figure 4A).
Figure 4 Evidence for HDAC inhibition in 4T1 and 4TO7 TNBC cells. Western blots and quantification of triplicate biological replicates analyzing the effects of 1,25D (100 nM), SAHA (100 nM), and hybrids (10 μM) on hyperacetylation of tubulin (A,D), H3K9 (B,E), and H3K27 (C,F) in 4T1 (A–C) and 4TO7 cells (D–F).
(§1) After 6 h treatments, 4T1, 4T07, or B16-F10 cells were solubilized in lysis buffer (20 mM Tris, pH 8, 150 mM NaCl, 1% Triton X-100, 3.5 mM SDS, and 13 mM deoxycholic acid), and proteins were separated on a 4–15% Tris/glycine/SDS gel (Bio-Rad). Then, the proteins were transferred to a nitrocellulose membrane, followed by blocking in 5% skim milk in Tris-buffered saline (TBS, 1×) solution. […] Finally, signals were detected using Clarity ECL substrates (Bio-Rad) and a ChemiDoc Imaging System. Changes in protein levels were quantified relative to control using Image Lab software (version 6.0.1) after normalization to GAPDH. […]
(In general: Immunoblotting shows a protein as a band on a membrane.)

The test system is the same in data set [2]. In words: Western blot of tubulin and histone H3 hyperacetylation in B16-F10 cells. It counts as cell-based, mouse. The settings on record: SAHA 100 nM.
Source text: (§2) B16-F10 cells are responsive to 1,25D analogues[45] and HDACi[46],[47] and are therefore widely used in preclinical studies of melanoma solid tumor growth and metastases.[48] Although curable when treated early, melanoma is fatal when invasive. The American Cancer Society projected 97,610 new invasive melanoma cases in the US in 2023 and 7990 deaths. Current treatment options include chemotherapy, surgery, immunotherapy, or single agents targeting mutated genes such as B-RAF or C-KIT.[49]
as §1
Figure S2. […] Quantification of the analyses of hyperacetylation in B16-F10 cells of tubulin, H3K9 and H3K27. […]

In data set [3] the test system is B16-F10 tumors. Briefly: B16-F10 melanoma model in vivo. On the set-up: species or system mouse. The settings on record: 2 doses of 5 mg/kg 24 h apart; also VDR gene; duplicate tumors from two animals. The protocol: We were then interested in comparing the efficacy of ZG compounds and other hybrids in tumor models in vivo. We focused initially on the B16-F10 melanoma which is syngeneic with C57BL/6 mice. The efficacy of ZG-126 in vivo in this model was tested in two experiments. […] In a second experiment, we compared the antitumor efficacy of hybrids at ∼0.5 MTD doses. […] All treatments were well tolerated, and body weights were unaffected (Figure 6C).
Finally, mice were sacrificed, and lungs of 4T1-bearing mice were removed to evaluate the efficiency of treatments on lung metastases.

Data set [4] can be described thus: in vivo. The following applies: BALB/c, mouse, ip.
Data set [5] deals with HDAC4 (Homo sapiens, UniProt P56524). Briefly: Biochemical assay for HDAC inhibition, HDAC4. The following applies: read-out: IC50 HDAC4.
For data set [6], the target named is T1, VDR (Mus musculus, UniProt P48281).
T1 sequence (P48281 1-422): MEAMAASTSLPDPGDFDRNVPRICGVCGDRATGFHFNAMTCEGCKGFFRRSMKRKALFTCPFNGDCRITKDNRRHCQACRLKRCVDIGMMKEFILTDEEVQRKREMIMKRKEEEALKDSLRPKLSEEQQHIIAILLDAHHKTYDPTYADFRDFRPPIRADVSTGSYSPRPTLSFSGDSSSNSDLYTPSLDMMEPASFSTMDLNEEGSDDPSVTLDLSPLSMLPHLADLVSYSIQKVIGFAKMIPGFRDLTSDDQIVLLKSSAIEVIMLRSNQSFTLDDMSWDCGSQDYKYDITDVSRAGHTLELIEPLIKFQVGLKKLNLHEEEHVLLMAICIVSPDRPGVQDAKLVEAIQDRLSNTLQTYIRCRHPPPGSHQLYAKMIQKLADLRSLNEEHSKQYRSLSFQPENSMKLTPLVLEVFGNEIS
In words: Cyp24a1 induction in B16-F10 melanoma cells. In kind it is cell-based. On the set-up: endogenous in cells; host or cells: mouse B16-F10 melanoma cells. The following applies: Figure S2A.
Source text: as §2
RNA extraction was performed with the FavorPrep tissue total RNA mini kit (FAVORGEN Biotech Corporation FATRK 001) as per manufacturer’s instructions. cDNA was obtained from 1 μg of RNA using 5× All-in-One RT MasterMix (Applied Biological Materials (abm) Inc. G485) and diluted 5 times. qPCR was performed with BrightGreen 2× q-PCR MasterMix (abm MasterMix-LR-XL) on a Roche LightCycler 96 system. Expression of targeted genes was normalized to 18 s.
Figure S2. A. Analysis of Cyp24a1 induction by ZG126, DK406, AM193 along with 1,25D and SAHA as controls in B16-F10 cells. B. Western blots analyzing the effects of 1,25D, SAHA and hybrids on hyperacetylation of tubulin, H3K9 and H3K27 in B16-F10 cells. C. Quantification of the analyses of hyperacetylation in B16-F10 cells of tubulin, H3K9 and H3K27. D. Assessment of cytotoxicity in B16-F10 […]
(1 picture or pasted object on this page, not shown here)

Sequence of HDAC4 (P56524 whole entry): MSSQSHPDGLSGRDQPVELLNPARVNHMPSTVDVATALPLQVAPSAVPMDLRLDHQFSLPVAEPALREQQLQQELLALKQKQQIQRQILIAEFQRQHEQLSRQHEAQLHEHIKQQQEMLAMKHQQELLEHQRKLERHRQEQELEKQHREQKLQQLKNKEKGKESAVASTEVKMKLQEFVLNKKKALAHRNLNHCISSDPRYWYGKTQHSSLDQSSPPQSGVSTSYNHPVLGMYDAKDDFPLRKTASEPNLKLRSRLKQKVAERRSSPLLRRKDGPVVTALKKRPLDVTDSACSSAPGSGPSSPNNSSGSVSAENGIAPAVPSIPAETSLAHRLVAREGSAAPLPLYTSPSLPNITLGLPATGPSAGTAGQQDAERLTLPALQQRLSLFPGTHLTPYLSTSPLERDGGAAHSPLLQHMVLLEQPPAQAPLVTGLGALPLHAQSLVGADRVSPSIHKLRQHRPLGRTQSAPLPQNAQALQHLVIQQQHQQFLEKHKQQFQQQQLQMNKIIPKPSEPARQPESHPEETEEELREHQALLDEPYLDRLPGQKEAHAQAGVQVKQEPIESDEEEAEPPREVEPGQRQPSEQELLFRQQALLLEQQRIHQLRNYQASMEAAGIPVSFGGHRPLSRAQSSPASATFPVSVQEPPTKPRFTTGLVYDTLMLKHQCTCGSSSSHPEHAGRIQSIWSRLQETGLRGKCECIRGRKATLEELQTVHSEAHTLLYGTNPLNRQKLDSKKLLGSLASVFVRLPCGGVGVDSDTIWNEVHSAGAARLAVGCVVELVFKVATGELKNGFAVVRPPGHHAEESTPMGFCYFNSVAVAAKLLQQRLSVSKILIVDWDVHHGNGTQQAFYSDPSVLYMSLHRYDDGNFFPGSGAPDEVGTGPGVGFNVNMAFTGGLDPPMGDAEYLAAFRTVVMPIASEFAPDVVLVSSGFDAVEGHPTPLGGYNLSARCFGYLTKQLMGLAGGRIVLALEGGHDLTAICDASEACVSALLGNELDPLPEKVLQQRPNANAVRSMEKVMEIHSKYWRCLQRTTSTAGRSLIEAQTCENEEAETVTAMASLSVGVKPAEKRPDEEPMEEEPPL

In the case of `CCC(CC)(c1ccc(C(=O)NCCCCC(=O)NO)cc1)c1ccc(OCC(O)C(C)(C)C)c(C)n1` (stereo not shown) [ZG-126, 4-(3-(5-(2-Hydroxy-3,3-dimethylbutoxy)-6-methylpyridin-2-yl)pentan-3-yl)-N-(5-(hydroxyamino)-5-oxopentyl)benzamide], in data set [1], the “tubulin and histone hyperacetylation” value was “induced higher levels of tubulin and histone hyperacetylation than SAHA”. Moreover, in data set [2], the “tubulin acetylation and histone hyperacetylation” value is “comparable to or greater than that induced by a saturating concentration of SAHA”. For the same compound, in data set [3], the “Cyp24a1 induction in B16-F10 tumors” value is given as “robust induction of Cyp24a1”. Also, the MTD in data set [4] turned out to be 10 mg/kg. Also, the IC50 was determined as 68 µM in data set [5] and 67.6 µM in data set [5] (Table 1, purified enzyme, unit inferred). The Cyp24a1 induction entry in data set [6] is on record as “mimicked”.

These data come from article PMC11249012 (Journal of Medicinal Chemistry, 2024).
